We go through 32 compounds from patent US8710043B2, “TRPM8 antagonists and their use in treatments” (Amgen Inc., priority 2011, dated 2014).

The target in this test is T1, human TRPM8 (Homo sapiens, UniProt Q7Z2W7).
T1 construct: expressed in transfected cells; host or cells: Chinese hamster ovary (CHO) cells, T-REx tetracycline-inducible system, co-transfected with aequorin
Description: Luminescence readout assay for measuring intracellular calcium, icilin activation. To be noted: CHO cells expressing human TRPM8, aequorin luminescence, 1 μM icilin activation; read-out: hTRPM8 IC50. Type of test: cell-based. In a few lines:
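The read-out was luminescence reporting intracellular calcium, recorded by a CCD-based luminometer. Compounds were preincubated for 2.5 min before agonist challenge with 1 μM icilin. Human TRPM8 was expressed in a stable T-REx CHO line, induced with 0.5 μg/mL tetracycline the day before.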

T1 sequence (Q7Z2W7 whole entry): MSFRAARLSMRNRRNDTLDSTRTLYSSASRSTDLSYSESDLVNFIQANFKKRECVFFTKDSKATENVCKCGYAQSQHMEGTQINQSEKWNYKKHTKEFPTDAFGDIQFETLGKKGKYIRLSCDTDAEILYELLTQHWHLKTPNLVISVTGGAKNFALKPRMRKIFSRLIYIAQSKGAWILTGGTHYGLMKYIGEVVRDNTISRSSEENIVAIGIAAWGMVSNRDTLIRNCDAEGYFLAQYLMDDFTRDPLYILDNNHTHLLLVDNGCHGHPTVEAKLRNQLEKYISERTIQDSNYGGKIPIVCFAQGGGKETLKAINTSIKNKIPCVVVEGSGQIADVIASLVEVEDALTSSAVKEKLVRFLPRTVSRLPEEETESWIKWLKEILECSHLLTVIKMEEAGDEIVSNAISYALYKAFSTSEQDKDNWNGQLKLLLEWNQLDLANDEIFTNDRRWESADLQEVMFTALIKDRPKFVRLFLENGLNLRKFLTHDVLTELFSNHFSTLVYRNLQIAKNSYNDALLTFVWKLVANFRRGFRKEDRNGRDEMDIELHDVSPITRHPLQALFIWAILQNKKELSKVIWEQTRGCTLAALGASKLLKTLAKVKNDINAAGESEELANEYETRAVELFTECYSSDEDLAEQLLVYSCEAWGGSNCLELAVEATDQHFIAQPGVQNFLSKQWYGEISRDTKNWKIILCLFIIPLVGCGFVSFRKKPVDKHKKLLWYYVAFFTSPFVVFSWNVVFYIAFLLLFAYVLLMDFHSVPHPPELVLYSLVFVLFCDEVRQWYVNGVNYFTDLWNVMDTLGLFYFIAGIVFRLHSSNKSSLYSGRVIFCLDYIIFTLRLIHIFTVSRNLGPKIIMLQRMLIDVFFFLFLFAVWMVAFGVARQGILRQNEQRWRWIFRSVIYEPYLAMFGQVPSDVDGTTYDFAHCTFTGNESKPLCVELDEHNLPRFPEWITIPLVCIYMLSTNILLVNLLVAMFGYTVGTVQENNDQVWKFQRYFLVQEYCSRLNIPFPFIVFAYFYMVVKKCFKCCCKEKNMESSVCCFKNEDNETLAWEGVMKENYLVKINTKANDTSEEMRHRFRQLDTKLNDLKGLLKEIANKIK

What is called IC50 is the midpoint of a concentration-inhibition curve. Regarding `O=C(N[C@@H](c1cnc2ccc(Cl)cc2c1)c1ncccc1C(F)(F)F)c1ccc2cccnc2c1` [Example 4, (S)-N-((6-chloroquinolin-3-yl)(3-(trifluoromethyl)pyridin-2-yl)methyl)quinoline-7-carboxamide], the IC50 is 44 nM.

Consider `COCCC(=O)N[C@@H](c1ccc(C(F)(F)F)cc1)c1ncccc1C(F)(F)F` [Example 224, (S)-3-methoxy-N-((4-(trifluoromethyl)phenyl)(3-(trifluoromethyl)pyridin-2-yl)methyl)propanamide], for which the IC50 amounted to 1400 nM.

As for `CC(C)(C)OC(=O)N1CCCC(C(=O)N[C@@H](c2ccc(C(F)(F)F)cc2)c2ncccc2C(F)(F)F)C1` (stereo partly drawn) [Example 142, tert-butyl 3-(((S)-(4-(trifluoromethyl)phenyl)(3-(trifluoromethyl)pyridin-2-yl)methyl)carbamoyl)piperidine-1-carboxylate], the IC50 stood at 144 nM.

Regarding `COc1cccc(C(=O)N[C@@H](c2ccc(C(F)(F)F)cc2)c2ncccc2C(F)(F)F)c1` [Example 191, (S)-3-methoxy-N-((4-(trifluoromethyl)phenyl)(3-(trifluoromethyl)pyridin-2-yl)methyl)benzamide], the IC50 was 78.9 nM.

Turning to `COc1cc(C(=O)N[C@@H](c2ccc(C(F)(F)F)cc2)c2ncccc2C(F)(F)F)ccn1` [Example 34, (S)-2-methoxy-N-((4-(trifluoromethyl)phenyl)(3-(trifluoromethyl)pyridin-2-yl)methyl)isonicotinamide], the IC50 was found to be 32.2 nM.

Regarding `O=C(NC(c1ccc(C(F)(F)F)cc1)c1ncccc1F)c1cccc(F)c1` (centres unmarked) [Example 209, 3-fluoro-N-((3-fluoropyridin-2-yl)(4-(trifluoromethyl)phenyl)methyl)benzamide], the IC50 came out at 105 nM.

On to `COc1cccc([C@H](NC(=O)c2ccc3cccnc3c2)c2ncccc2C(F)(F)F)c1` [Example 24, (S)-N-((3-methoxyphenyl)(3-(trifluoromethyl)pyridin-2-yl)methyl)quinoline-7-carboxamide], for which the IC50 is 318 nM.

On to `O=C(N[C@@H](c1ccc(C(F)(F)F)cc1)c1ncccc1F)c1ccc2[nH]c(=O)oc2c1` [Example 78, (S)-N-((3-fluoropyridin-2-yl)(4-(trifluoromethyl)phenyl)methyl)-2-oxo-2,3-dihydrobenzo[d]oxazole-6-carboxamide], for which the IC50 is 14.8 nM.

Turning to `O=C(N[C@@H](c1ccc(C(F)(F)F)cc1)c1ncccc1F)c1ccc(=O)n(C(F)F)c1` [Example 396, (S)-1-(difluoromethyl)-N-((3-fluoropyridin-2-yl)(4-(trifluoromethyl)phenyl)methyl)-6-oxo-1,6-dihydropyridine-3-carboxamide], the IC50 is 20.1 nM.

Take `COc1ncccc1C(=O)N[C@@H](c1ccc(C(F)(F)F)cc1)c1ncccc1F` [Example 47, (S)-N-((3-fluoropyridin-2-yl)(4-(trifluoromethyl)phenyl)methyl)-2-methoxynicotinamide]: the IC50 was 20.1 nM.

Consider `Cc1nc2cc(C(=O)N[C@@H](c3ccc(C(F)(F)F)cc3)c3ncccc3F)ccc2[nH]1` [Example 397, (S)-N-((3-fluoropyridin-2-yl)(4-(trifluoromethyl)phenyl)methyl)-2-methyl-1H-benzo[d]imidazole-5-carboxamide], for which the IC50 turned out to be 10.3 nM.

Take `O=C1Cc2ccc(C(=O)N[C@@H](c3ccc(C(F)(F)F)cc3)c3ncccc3F)cc2N1` [Example 71, (S)-N-((3-fluoropyridin-2-yl)(4-(trifluoromethyl)phenyl)methyl)-2-oxoindoline-6-carboxamide]: the IC50 worked out at 9.2 nM.

With `O=C(N[C@@H](c1ccc(OC(F)(F)F)c(F)c1)c1ncccc1F)c1c[nH]c(=O)c(C(F)(F)F)c1` [Example 402, (S)-N-((3-fluoro-4-(trifluoromethoxy)phenyl)(3-fluoropyridin-2-yl)methyl)-6-oxo-5-(trifluoromethyl)-1,6-dihydropyridine-3-carboxamide], the IC50 amounted to 120 nM.

For `COc1ncccc1C(=O)NC(c1ccc(C(F)(F)F)cc1)c1ncccc1F` (centres unmarked) [Example 36, N-((3-fluoropyridin-2-yl)(4-(trifluoromethyl)phenyl)methyl)-2-methoxynicotinamide], the IC50 stood at 73 nM.

Turning to `O=C(N[C@@H](c1cnc2c(Cl)cccc2c1)c1ncccc1C(F)(F)F)c1ccc2cccnc2c1` [Example 7, (S)-N-((8-chloroquinolin-3-yl)(3-(trifluoromethyl)pyridin-2-yl)methyl)quinoline-7-carboxamide], the IC50 was 75.8 nM.

`Cn1ccnc1C(=O)N[C@@H](c1ccc(C(F)(F)F)cc1)c1ncccc1C(F)(F)F` [Example 146, (S)-1-methyl-N-((4-(trifluoromethyl)phenyl)(3-(trifluoromethyl)pyridin-2-yl)methyl)-1H-imidazole-2-carboxamide]: the IC50 stood at 180 nM.

On to `COc1cncc(C(=O)N[C@@H](c2ccc(C(F)(F)F)cc2)c2ncccc2C(F)(F)F)c1` [Example 38, (S)-5-methoxy-N-((4-(trifluoromethyl)phenyl)(3-(trifluoromethyl)pyridin-2-yl)methyl)nicotinamide], for which the IC50 came out at 77.7 nM.

For `O=C(N[C@@H](c1ccc(C(F)(F)F)cc1)c1ncccc1F)c1ccc2cccnc2c1` (stereo in doubt) [Example 204, N-((3-fluoropyridin-2-yl)(4-(trifluoromethyl)phenyl)methyl)quinoline-7-carboxamide], the IC50 turned out to be 104 nM.

For `COc1cccc2cc([C@H](NC(=O)c3ccc4cccnc4c3)c3ncccc3C(F)(F)F)cnc12` [Example 23, (S)-N-((8-methoxyquinolin-3-yl)(3-(trifluoromethyl)pyridin-2-yl)methyl)quinoline-7-carboxamide], the IC50 stood at 1060 nM.

`O=C(N[C@@H](c1ccc(C(F)(F)F)cc1)c1ncccc1C(F)(F)F)c1ccc(C(=O)O)c(Br)c1` [Example 100, (S)-2-bromo-4-(((4-(trifluoromethyl)phenyl)(3-(trifluoromethyl)pyridin-2-yl)methyl)carbamoyl)benzoic acid]: the IC50 was 61.5 nM.

For `CCc1cccnc1[C@@H](NC(=O)c1ccc(=O)[nH]c1)c1ccc(C(F)(F)F)cc1` [Example 430, (S)—N-((3-Ethylpyridin-2-yl)(4-(trifluoromethyl)phenyl)methyl)-6-oxo-1,6-dihydropyridine-3-carboxamide], the IC50 came out at 12.4 nM.

Turning to `O=C(N[C@@H](c1ccc(C(F)(F)F)cc1)c1ncccc1F)c1cc2n(n1)CCCO2` [Example 320, (S)-N-((3-fluoropyridin-2-yl)(4-(trifluoromethyl)phenyl)methyl)-6,7-dihydro-5H-pyrazolo[5,1-b][1,3]oxazine-2-carboxamide], the IC50 turned out to be 132 nM.

On to `CC#Cc1cccnc1[C@@H](NC(=O)c1ccc(OC)cc1)c1ccc(C(F)(F)F)cc1` [Example 95, (S)-4-methoxy-N-((3-(prop-1-yn-1-yl)pyridin-2-yl)(4-(trifluoromethyl)phenyl)methyl)benzamide 2,2,2-trifluoroacetate], for which the IC50 came out at 57.2 nM.

`O=C(N[C@@H](c1ccc(C(F)(F)F)cc1)c1ncccc1F)c1cccs1` [Example 375, (S)-N-((3-fluoropyridin-2-yl)(4-(trifluoromethyl)phenyl)methyl)thiophene-2-carboxamide]: the IC50 stood at 30.3 nM.

Take `O=C(N[C@@H](c1ccc(C(F)(F)F)cc1)c1ncccc1C(F)(F)F)C1CCC(O)CC1` (stereo partly drawn) [Example 242, (S)-4-hydroxy-N-((4-(trifluoromethyl)phenyl)(3-(trifluoromethyl)pyridin-2-yl)methyl)cyclohexanecarboxamide]: the IC50 amounted to 1030 nM.

Consider `CC(=O)NC(C)C(=O)N[C@@H](c1ccc(C(F)(F)F)cc1)c1ncccc1C(F)(F)F` (stereo partly drawn) [Example 162, 2-acetamido-N-((S)-(4-(trifluoromethyl)phenyl)(3-(trifluoromethriyl)pyridin-2-yl)methyl)propanamide], for which the IC50 came to 4380 nM.

Regarding `Cc1cc(C(=O)N[C@@H](c2ccc(OC(F)(F)F)c(F)c2)c2ncccc2F)c[nH]c1=O` [Example 403, (S)-N-((3-fluoro-4-(trifluoromethoxy)phenyl)(3-fluoropyridin-2-yl)methyl)-5-methyl-6-oxo-1,6-dihydropyridine-3-carboxamide], the IC50 was determined as 17.8 nM.

As to `O=C(N[C@@H](c1ccc(OC(F)(F)F)c(F)c1)c1ncccc1Br)c1ccc(=O)[nH]c1` [Example 382, (S)-N-((3-bromopyridin-2-yl)(3-fluoro-4-(trifluoromethoxy)phenyl)methyl)-6-oxo-1,6-dihydropyridine-3-carboxamide], the IC50 came out at 6.9 nM.

Consider `O=C(N[C@@H](c1ccc(OC(F)(F)F)cc1)c1ncccc1F)c1ccc2[nH]c(=O)oc2c1` [Example 80, (S)-N-((3-fluoropyridin-2-yl)(4-(trifluoromethoxy)phenyl)methyl)-2-oxo-2,3-dihydrobenzo[d]oxazole-6-carboxamide], for which the IC50 is 23.1 nM.

Regarding `Cc1ccc([C@H](NC(=O)c2ccc(=O)n(C)c2)c2ncccc2F)cc1F` [Example 335, (S)-N-((3-fluoro-4-methylphenyl)(3-fluoropyridin-2-yl)methyl)-1-methyl-6-oxo-1,6-dihydropyridine-3-carboxamide], the IC50 is 209 nM.

As to `Cn1cc(C(=O)N[C@@H](c2cc(F)cc(C(F)(F)F)c2)c2ncccc2F)ccc1=O` [Example 328, (S)-N-((3-fluoro-5-(trifluoromethyl)phenyl)(3-fluoropyridin-2-yl)methyl)-1-methyl-6-oxo-1,6-dihydropyridine-3-carboxamide], the IC50 was 1060 nM.

As to `COC(=O)c1ccc(C(=O)N[C@@H](c2ccc(C(F)(F)F)cc2)c2ncccc2C(F)(F)F)cc1` [Example 140, (S)-methyl 4-(((4-(trifluoromethyl)phenyl)(3-(trifluoro-methyl)pyridin-2-yl)methyl)carbamoyl)benzoate], the IC50 is 52.7 nM.
